Experimental data: ChEMBL document CHEMBL5137025, “Tuberculosis Drug Discovery: Challenges and New Horizons” (J Med Chem, 2022)
Converted amounts (≈) assume the structure as drawn.

Columns and labels:
[1] = test system: Mycobacterium tuberculosis; test: Antibacterial activity against Ethionamide-resistant Mycobacterium tuberculosis Beijing strain in acute Mtb infection BALB/c mouse model assessed as reduction in log10 CFU in lungs at 50 mg/kg, po for 3 weeks in presence of Ethionamide; format: functional
[2] = test system: Mycobacterium tuberculosis; test: Antibacterial activity against Mycobacterium tuberculosis Erdman (TMCC 107) assessed as reduction in resistance generation frequency; format: functional
[3] = test system: Mycobacterium tuberculosis; test: Antibacterial activity against Mycobacterium tuberculosis Erdman (TMCC 107) in Mtb infection C3HeB/FeJ mouse model assessed as reduction in resistance generation frequency administered for 8 weeks relative to control; format: functional; parameters: scale not given: the % may be the effect or the level left
[4] = test system: Mycobacterium tuberculosis; test: Antibacterial activity against extensively drug-resistant Mycobacterium tuberculosis clinical isolate assessed as inhibition of bacterial growth in presence of SMARt-420; format: functional
[5] = test system: Mycobacterium tuberculosis; test: Antibacterial activity against multidrug-resistant Mycobacterium tuberculosis clinical isolate assessed as inhibition of bacterial growth in presence of SMARt-420; format: functional
[6] = test system: Mycobacterium tuberculosis; test: Antibacterial activity against Mycobacterium tuberculosis assessed as reduction in resistance generation frequency; format: functional
[7] = test system: Mycobacterium tuberculosis; test: Antibacterial activity against EMB-resistant Mycobacterium tuberculosis assessed as inhibition of bacterial growth; format: functional
[8] = test system: Mycobacterium tuberculosis; test: microbe, parasite or virus in culture
[9] = test system: Mycobacterium tuberculosis; test: microbe, parasite or virus in culture; remark: listed apart in the source

O=C(CCC(F)(F)F)N1CCC2(CC1)CC(c1ccccc1)=NO2
Activity [1]: 4 log10CFU

CCS(=O)(=O)N1N=Cc2ccc(Oc3ccc(C(F)(F)F)cc3/C=N/O)cc2B1O
Activity [2]: 4 10^-7No_unit
Activity [3]: 0.04%
MIC [4]: 0.15 µM
MIC [5]: 0.15 µM

CCNC(=N)NC(=O)Nc1c(CC)cccc1CC
Activity [6]: >1.5 log10CFU

CC(C)=CCC/C(C)=C/CNCCNC1C2CC3CC(C2)CC1C3 (stereo not drawn) [SQ109]
MIC [7]: 2.4 µM (≈ 0.793 µg/mL)

CCc1cc(C(N)=S)ccn1 [ETHIONAMIDE]
MIC [8]: 48 µM (≈ 7.98 µg/mL)
MIC [9]: 48 µM (≈ 7.98 µg/mL)

Cc1ccn(C(C)c2nnc(Nc3ccn(Cc4c(F)cccc4Cl)n3)s2)n1 (stereo not drawn)
Activity [6]: 4 10^-8No_unit

NNC(=O)c1ccncc1 [ISONIAZID]
Activity [6]: 4 10^-5No_unit
Activity [3]: 29%

Cc1n[nH]c2ccc(NS(=O)(=O)CCCCF)cc12
Activity [6]: 6 10^-8No_unit
